Series [1] relates to SARS-CoV-2. The series is described as follows: microbe, parasite or virus in culture. Type of series: cell-based. The conditions noted are these: for IC50: read-out: IC50 (anti-viral activity).
Series [2] is described as follows: in vitro. Particulars: african green monkey.
Series [3] can be described thus: in vitro. Particulars: human, CC50, A549 ACE2+ cells, 48 h, CellTiter-Glo. (In ATP-based viability assays light output follows the ATP content of the culture.)
Series [4] concerns SARS-CoV-2. The series is described as follows: microbe, parasite or virus in culture. It counts as cell-based. The conditions noted are these: Severe acute respiratory syndrome coronavirus 2, Vero C1008; read-out: CPE IC50.
The subject of series [5] is SARS-CoV-2. The series can be described thus: qPCR readout of viral replication in Vero E6 cells. It counts as cell-based. Particulars: Severe acute respiratory syndrome coronavirus 2, Vero C1008, viral replication by qPCR. On the technique in general: In qPCR the cycle at which signal appears reflects the starting amount.
In the next series the test system is A549 ACE2+ cells. Particulars: 48 h, CellTiter-Glo.
The target in a further series is SARS-CoV-2 nsp13 (Severe acute respiratory syndrome coronavirus 2, UniProt P0DTD1). The series can be described thus: biochemical. The conditions noted are these: 1 nM nsp13, 1 mM ATP, 15 min at 37 °C; unit printed in b45 only; read-out: IC50 nsp13 helicase unwinding activity.
For another series, the target named is T1, serine protease TMPRSS2 (Homo sapiens, UniProt O15393).
T1 construct: Axxam S.p.A. (assay provider)
The series can be described thus: TMPRSS2 inhibition (Axxam S.p.A. proprietary assay). Type of series: biochemical.

Series [6] deals with SARS-CoV-2. The series can be described thus: microbe, parasite or virus in culture. It counts as cell-based. Particulars: Severe acute respiratory syndrome coronavirus 2, A549 ACE2+ cells, 48 h p.i., read-out: inhibition of viral titer (plaque reduction).
Setting [7] is: Severe acute respiratory syndrome coronavirus 2, A549-ACE2, 48 h.
Where [8] appears, read: ratio of CC50 over IC50, A549 ACE2+ cells.

Results on seven compounds are retold here after PMC10221469 (Viruses, 2023).

Molecules are shown by their SMILES. Where two headings read alike, the source gives them in different places. Where only a bound is given, the exact number is not on record here.

T1 sequence (O15393 whole entry): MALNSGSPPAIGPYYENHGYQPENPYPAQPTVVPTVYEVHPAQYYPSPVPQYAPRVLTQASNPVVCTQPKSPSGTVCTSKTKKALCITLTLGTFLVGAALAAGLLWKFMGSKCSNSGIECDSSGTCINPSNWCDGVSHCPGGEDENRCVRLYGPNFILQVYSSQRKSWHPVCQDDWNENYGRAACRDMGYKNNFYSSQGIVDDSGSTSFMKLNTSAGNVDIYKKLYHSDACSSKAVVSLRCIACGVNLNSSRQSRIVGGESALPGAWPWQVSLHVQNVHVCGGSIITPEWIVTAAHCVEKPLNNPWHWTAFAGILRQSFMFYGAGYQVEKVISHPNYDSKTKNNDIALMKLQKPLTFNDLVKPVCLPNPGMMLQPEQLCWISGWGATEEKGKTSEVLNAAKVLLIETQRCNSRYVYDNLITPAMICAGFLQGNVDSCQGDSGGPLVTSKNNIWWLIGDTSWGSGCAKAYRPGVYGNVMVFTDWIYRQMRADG

With `Nc1nc(N)c2nc(CNc3ccc(C(=O)N[C@@H](CCC(=O)O)C(=O)O)cc3)cnc2n1` [Aminopterin], in the series on SARS-CoV-2 [1], the “SI (selectivity index)” value was 1.9. Moreover, the IC50 (in general, the concentration at which inhibition is half-maximal) with SARS-CoV-2 [1] (setting [7]) is above 1500 nM; with SARS-CoV-2 [1], 1300 nM; in the series with SARS-CoV-2 [4], 330 nM; in the series on SARS-CoV-2 [5], 80 nM; on SARS-CoV-2 nsp13, 2590 nM. For the same compound, the values for the CC50 in “in vitro [2]”, in the series “in vitro [3]” and in the series on A549 ACE2+ cells were above 33 µM, above 2000 nM and 2490 nM, respectively.

In the case of `CN(Cc1cnc2nc(N)nc(N)c2n1)c1ccc(C(=O)N[C@@H](CCC(=O)O)C(=O)O)cc1` [Methotrexate hydrate], the IC50 with SARS-CoV-2 [1] (setting [7]) is 630 nM; in the series on SARS-CoV-2 [4], 2810 nM; in the series with SARS-CoV-2 [5], 440 nM; on serine protease TMPRSS2, above 30 µM; at SARS-CoV-2 nsp13, 2030 nM. For the same compound, the CC50 in the series “in vitro [2]” was above 33 µM; in the series “in vitro [3]” it was 1180 nM. Moreover, the inhibition – broadly, the drop in the measured response relative to a control, in per cent – at 1.25 µM in the series with SARS-CoV-2 [6] (1.25 µM) came out at 94%. Further, the inhibition at 2.5 µM with SARS-CoV-2 [6] (2.5 µM) came out at 98%.

As for `Nc1nc2[nH]cc(CCc3ccc(C(=O)N[C@@H](CCC(=O)O)C(=O)O)cc3)c2c(=O)[nH]1` [Pemetrexed disodium heptahydrate], the IC50 with SARS-CoV-2 [1] was found to be 5000 nM. Moreover, the CC50 in “in vitro [3]” was above 2000 nM; in the series with A549 ACE2+ cells, 2430 nM.

On to `C#CCC(Cc1cnc2nc(N)nc(N)c2n1)c1ccc(C(=O)N[C@@H](CCC(=O)O)C(=O)O)cc1` (stereo partly drawn) [Pralatrexate], for which the “SI (selectivity index)” value with SARS-CoV-2 [1] stood at 2. In addition, the half-maximal inhibitory concentration (IC50) was 4 nM in the series with SARS-CoV-2 [1] (setting [7]); 50 nM in the series with SARS-CoV-2 [4]; 80 nM with SARS-CoV-2 [5]; 0.45 µM against serine protease TMPRSS2; 140 nM at SARS-CoV-2 nsp13. Also, the CC50 was above 33 µM in “in vitro [2]” and 8 nM in the series “in vitro [3]”. For the same compound, in the series on SARS-CoV-2 [6], the inhibition at 0.019 µM was determined as 90.4%. In the series with SARS-CoV-2 [6], the inhibition at 0.039 µM was 96.5%.

For the compound `Cc1nc2ccc(CN(C)c3ccc(C(=O)N[C@@H](CCC(=O)O)C(=O)O)s3)cc2c(=O)[nH]1` [Raltitrexed], the “SI (selectivity index)” value with SARS-CoV-2 [1] (setting [8]) is recorded as 0.2. In “in vitro [3]”, this compound had a CC50 of 890 nM. Besides, the IC50 at SARS-CoV-2 nsp13 was 3220 nM.

As to `CCC(CC)COC(=O)[C@H](C)N[P@](=O)(OC[C@H]1O[C@@](C#N)(c2ccc3c(N)ncnn23)[C@H](O)[C@@H]1O)Oc1ccccc1` [Remdesivir], the CC50 in the series “in vitro [2]” is above 33 µM. Besides, the IC50 with SARS-CoV-2 [4] worked out at 2740 nM; in the series on SARS-CoV-2 [5] it was 3200 nM.

Regarding `COc1cc(NCc2ccc3nc(N)nc(N)c3c2C)cc(OC)c1OC` [Trimetrexate], the IC50 in the series with SARS-CoV-2 [1] (setting [7]) was 7 nM; in the series with SARS-CoV-2 [4] it was 340 nM; in the series on SARS-CoV-2 [5], 80 nM; against serine protease TMPRSS2 it was above 30 µM; at SARS-CoV-2 nsp13 it was 1560 nM. In the series with SARS-CoV-2 [1] (setting [8]), the “SI (selectivity index)” value is 1.4. Moreover, the CC50 is above 33 µM in “in vitro [2]” and 10 nM in the series “in vitro [3]”. Also, the inhibition at 0.009 µM in the series with SARS-CoV-2 [6] (0.009 µM) turned out to be 86%. The inhibition at 0.019 µM in the series with SARS-CoV-2 [6] is 97.5%. In addition, the inhibition at 0.039 µM in the series with SARS-CoV-2 [6] is 96.5%.
